Measurements: patent US20100041760A1, “MONOARYL AMINOTETRALINES” (priority 2008, published 2010)

Tests used:
[1] = target: T1, thromboxane A2 receptor (TP) (Homo sapiens, UniProt P21731); experiment: Human Thromboxane A2 Receptor Binding Assay; settings: human platelets; 10 nM [3H]SQ29548; 1 hour, room temperature
T1 construct: using human platelets as the source of the receptor; from tissue; host or cells: human platelets (whole platelets, 5x10^7 per well)
T1 sequence (P21731 1-343): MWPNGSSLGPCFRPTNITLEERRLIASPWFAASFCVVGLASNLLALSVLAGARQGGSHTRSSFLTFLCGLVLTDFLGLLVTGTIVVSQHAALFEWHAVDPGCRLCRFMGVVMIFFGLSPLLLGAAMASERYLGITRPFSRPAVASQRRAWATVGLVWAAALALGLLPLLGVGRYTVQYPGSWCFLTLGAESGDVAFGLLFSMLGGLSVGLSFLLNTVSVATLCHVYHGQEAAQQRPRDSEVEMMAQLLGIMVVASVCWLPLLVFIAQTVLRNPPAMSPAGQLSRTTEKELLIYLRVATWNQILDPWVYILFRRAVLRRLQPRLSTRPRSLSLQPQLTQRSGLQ
From the text: The thromboxane A2 receptor (TP) plays a key role in hemostasis as its abnormality leads to bleeding disorders. To avoid the potential liability of bleeding disorders, the binding activity of certain compounds of the present invention against TP was monitored by a receptor binding assay using human platelets as the source of the receptor and [^3H]SQ29548 (generically named (5Z)-[5,6-^3H]-7-[(1S,2R,3R,4R)-3-[[2-[(phenylamino)carbonyl]hydrazinyl]methyl]-7-oxabicyclo[2.2.1]hept-2-yl]-5-heptenoic acid, from PerkinElmer Inc.) as the competing radioactive ligand.
The TP binding reactions (0.2 mL) were performed in 96-well plates at room temperature in PBS containing 5×10^7 platelets, 10 mM MgCl2, 0.06% BSA, 10 nM [^3H]SQ29548, and the test compound at various concentrations. After 1 hour of binding reactions, the platelets were harvested on GF/B filter plates (as previously described from PerkinElmer Inc.) and washed 5 times with PBS using a Filtermate™ Harvester (as previously described from PerkinElmer Inc.). The radioactivities bound to the platelets were determined using a microplate scintillation counter (TopCount® NXT, from PerkinElmer Inc.) after adding 50 μL of Microscint™ 20 scintillation fluid (from PerkinElmer Inc.) to each well of the filter plates. The radioactivity from non-specific binding was determined by replacing the compound with 10 μM of ramatroban (BAY-u3405, from Cayman Chemical Company) in the reaction mixtures. The radioactivity bound to the platelets in the absence of compound (total binding) was determined by replacing the compound with 0.25% of DMSO in the reaction mixture. Specific binding data were obtained by subtracting the radioactivity of non-specific binding from each binding data.
(§1) The IC50 value is defined as the concentration of the tested compound that is required for 50% inhibition of total specific binding. In order to calculate the IC50 value, the percent inhibition data were determined for 7 concentrations for each compound. The percent inhibition for a compound at each concentration was calculated according to the following formula, [1−(specific binding in the presence of compound)/(total specific binding)]×100. The IC50 value was then obtained by fitting the percent inhibition data to a sigmoidal dose-response (4 parameter logistic) model in the XLfit® software Excel add-in program [from ID Business Solutions Ltd., model 205, where F(x)=(A+(B−A)/(1+((C/x)̂D)))].

human CRTH2 = target: T2, human CRTH2 (Homo sapiens, UniProt Q9Y5Y4); experiment: Human CRTH2 Receptor Binding Assay (whole cell, [3H]ramatroban competition); set-up: expressed in transfected cells; host or cells: CHO-K1 (co-transfected with G-alpha16); settings: CHO-K1 cells expressing human CRTH2 and G-alpha16; 20 nM [3H]ramatroban; 1 hour, room temperature
T2 sequence (Q9Y5Y4 1-395): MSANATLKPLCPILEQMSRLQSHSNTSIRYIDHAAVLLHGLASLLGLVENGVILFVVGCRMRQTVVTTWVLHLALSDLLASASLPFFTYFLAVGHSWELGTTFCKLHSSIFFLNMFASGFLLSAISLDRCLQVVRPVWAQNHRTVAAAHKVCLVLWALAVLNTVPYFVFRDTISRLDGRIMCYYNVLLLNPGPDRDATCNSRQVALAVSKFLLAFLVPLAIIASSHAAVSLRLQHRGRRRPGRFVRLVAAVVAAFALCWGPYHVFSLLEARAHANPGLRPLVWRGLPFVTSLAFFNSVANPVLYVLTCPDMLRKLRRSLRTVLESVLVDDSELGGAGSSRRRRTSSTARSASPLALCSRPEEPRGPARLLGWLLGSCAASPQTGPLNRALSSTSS
From the text: A whole cell receptor binding assay using [^3H]ramatroban as the competing radioactive ligand was employed to evaluate the compound binding activity to human CRTH2. The radioactive ligand [^3H]ramatroban was synthesized according to Sugimoto et. al. (Eur. J. Pharmacol. 524, 30-37, 2005) to a specific activity of 42 Ci/mmol.
A cell line stably expressing human CRTH2 was established by transfecting CHO-K1 cells with two mammalian expression vectors that harbored human CRTH2 and G-alpha16 cDNAs, respectively, using FuGene® 6 transfection reagent (from Roche). Stable clones expressing CRTH2 were selected by staining each clone with BM16 (BD Pharmingen™ from BD Biosciences, a division of Becton, Dickinson and Company), which is a rat monoclonal antibody to human CRTH2. The cells were maintained as monolayer cultures in Ham's F-12 medium containing 10% fetal bovine serum, 100 units/mL penicillin, 100 μg/mL streptomycin, 2 mM glutamine, 0.5 mg/mL G418 (geneticin) for CRTH2, and 0.2 mg/mL hygromycin-B (for G-alpha 16). For whole cell receptor binding assay, the monolayer cells were rinsed once with PBS (phosphate buffered saline), dissociated using ethylenediaminetetraacetate (Versene™ EDTA from Lonza Inc.), and suspended in PBS containing 10 mM MgCl2 and 0.06% BSA (bovine serum albumin) at 1.5×10^6 cells/mL.
The binding reactions (0.2 mL) were performed in 96-well plates at room temperature in PBS containing 1.5×10^5 cells, 10 mM MgCl2, 0.06% BSA, 20 nM [^3H]ramatroban, and test compound at various concentrations. After 1 hour of binding reactions, the cells were harvested on GF™/B filter microplates (microtiter plates with embedded glass fiber from PerkinElmer, Inc.) and washed 5 times with PBS using a Filtermate™ Harvester (a cell harvester that harvests and washes cells from microplates from PerkinElmer, Inc.). The radioactivities bound to the cells were determined using a microplate scintillation counter (TopCount® NXT, from PerkinElmer, Inc.) after adding 50 μL of Microscint™ 20 scintillation fluid (from PerkinElmer, Inc.) to each well of the filter plates. The radioactivity from non-specific binding was determined by replacing compound with 10 μM of 15(R)-15-methyl PGD2 (from Cayman Chemical Company) in the reaction mixtures. The radioactivity bound to the cells in the absence of compound (total binding) was determined by replacing compound with 0.25% of DMSO (dimethyl sulfoxide) in the reaction mixture. Specific binding data were obtained by subtracting the radioactivity of non-specific binding from each binding data.
as §1

IC50 [1]	IC50 (human CRTH2)	Structure (SMILES)
> 10000 nM	13.5 nM	CC(C)c1cc(C(F)(F)F)cc(S(=O)(=O)N[C@@H]2CCCc3c(OCC(=O)O)cccc32)c1 [Example 10-6, [(R)-5-(3-isopropyl-5-trifluoromethyl-benzenesulfonylamino)-5,6,7,8-tetrahydro-naphthalen-1-yloxy]-acetic acid]
> 10000 nM	31 nM	CC(C)(C)c1cc(C(C)(C)C)cc(S(=O)(=O)N[C@@H]2CCCc3c(OCC(=O)O)cccc32)c1 [Example 10-8, [(R)-5-(3,5-di-tert-butyl-benzenesulfonylamino)-5,6,7,8-tetrahydro-naphthalen-1-yloxy]-acetic acid]
8180 nM	310 nM	Cc1cc(C)cc(S(=O)(=O)N[C@@H]2CCCc3c(OCC(=O)O)cccc32)c1 [Example 10-4, [(R)-5-(3,5-dimethyl-benzenesulfonylamino)-5,6,7,8-tetrahydro-naphthalen-1-yloxy]-acetic acid]
> 10000 nM	18.4 nM	CC1(c2cc(C(F)(F)F)cc(S(=O)(=O)N[C@@H]3CCCc4c(OCC(=O)O)cccc43)c2)CC1 [Example 10-7, {(R)-5-[3-(1-methyl-cyclopropyl)-5-trifluoromethyl-benzenesulfonylamino]-5,6,7,8-tetrahydro-naphthalen-1-yloxy}-acetic acid]

Further lines, the molecule ahead of its results:

Structure (SMILES)	IC50 [1]	IC50 (human CRTH2)
CN([C@@H]1CCCc2c(OCC(=O)O)cccc21)S(=O)(=O)c1cc(Br)cc(C(F)(F)F)c1 [Example 1-5, {(R)-5-[(3-bromo-5-trifluoromethyl-benzenesulfonyl)-methyl-amino]-5,6,7,8-tetrahydro-naphthalen-1-yloxy}-acetic acid]	> 10000 nM	74.2 nM
CC(C)Oc1cc(C(F)(F)F)cc(S(=O)(=O)N(C)[C@@H]2CCCc3c(OCC(=O)O)cccc32)c1 [Example 9-1, {(R)-5-[(3-isopropoxy-5-trifluoromethyl-benzenesulfonyl)-methyl-amino]-5,6,7,8-tetrahydro-naphthalen-1-yloxy}-acetic acid]	> 10000 nM	147 nM
CC(F)(F)c1cc(C(F)(F)F)cc(S(=O)(=O)N[C@@H]2CCCc3c(OCC(=O)O)cccc32)c1 [Example 10-2, {(R)-5-[3-(1,1-difluoro-ethyl)-5-trifluoromethyl-benzenesulfonylamino]-5,6,7,8-tetrahydro-naphthalen-1-yloxy}-acetic acid]	> 10000 nM	6 nM
CN([C@@H]1CCCc2c(OCC(=O)O)cccc21)S(=O)(=O)c1cc(C(F)(F)F)cc(S(=O)(=O)C(C)(C)C)c1 [Example 3-3, ((R)-5-{methyl-[3-(2-methyl-propane-2-sulfonyl)-5-trifluoromethyl-benzenesulfonyl]-amino}-5,6,7,8-tetrahydro-naphthalen-1-yloxy)-acetic acid]	> 10000 nM	3.4 nM
CN([C@@H]1CCCc2c(OCC(=O)O)cccc21)S(=O)(=O)c1cc(C(F)(F)F)cc(C2(C)CC2)c1 [Example 7-1, ((R)-5-{methyl-[3-(1-methyl-cyclopropyl)-5-trifluoromethyl-benzenesulfonyl]-amino}-5,6,7,8-tetrahydro-naphthalen-1-yloxy)-acetic acid]	> 10000 nM	76.6 nM
CC(=O)c1cc(C(F)(F)F)cc(S(=O)(=O)N(C)[C@@H]2CCCc3c(OCC(=O)O)cccc32)c1 [Example 6-1, {(R)-5-[(3-acetyl-5-trifluoromethyl-benzenesulfonyl)-methyl-amino]-5,6,7,8-tetrahydro-naphthalen-1-yloxy}-acetic acid]	> 10000 nM	78.2 nM
